From US5688771A, “Lipophilic oligopeptides with immunomodulating activity” (priority 1993, dated 1997) come the findings set out here.

The subject of data set [1] is antibody producing cells (SRBC antigen). Put plainly: Plaque forming assay (PFC) in spleen cells of SRBC-immunized mice. In kind it is in vivo. As to conditions: for Plaque Assay, PFC relative to control (100%) / Plaque Assay, PFC per 10^6 spleen cells: mice, 10 mg/kg i.p.; for Plaque Assay, PFC per 10^6 spleen cells: five days after injections; for Immunomodulating activity (in words): plaque-forming assay, Table 1.

The subject of data set [2] is IgM antibody against SRBC antigen. Description: Enzyme immunoassay of IgM antibody in blood of SRBC-immunized mice. The format is in vivo. The procedure:
Outbred CD1 mice were immunized with 0.1% volume for volume sheep red blood cell antigen suspended in saline. The mice were injected intraperitoneally with 0.5 ml, suspension of approximately 2×10^7 cells.
The mice were injected shortly thereafter with a suspension of an immunomodulator of the invention. The immunomodulator dose was a 0.23 ml of a 1 mg/ml suspension in phosphate buffered saline. The injected dose was 10 mg/kg. The second injection was also intraperitoneal.
The mice were killed five days after injections. Blood samples were taken for analysis of immunoglobulin. The determination was made by enzyme immunoassay using an anti μ-horseradish peroxidase conjugate. The spleen was removed, transferred to a petri dish containing 2 ml of Hank's balanced salt solution and 10 mMolar Hepes buffer (HBSS-HEPES). The spleen was gently crushed by the use of forceps, and the cell suspension was filtered through cotton gauze to eliminate cellular debris. The filtered suspension was brought to volume (5 ml) by the addition of HBSS-HEPES, the cells counted, and the suspension diluted to a final concentration of 5×10^6 cells/ml.

Data set [3] concerns Total T and B cells in splenocytes. Description: Splenic T and B cell enumeration by FACS. The format is in vivo, C57BL/6 mice. As to conditions: for % Cells/Spleen ± SD, B Cells / % Cells/Spleen ± SD, T Cells: 50 mg/kg/day i.p. every other day for 4 injections, n = 5; for % Cells/Spleen ± SD, B Cells: anti-Ly5; for % Cells/Spleen ± SD, T Cells: anti-Thy 1.2; for Effect on B cell counts (in words) / Effect on T cell counts (in words): 50 mg/kg, splenocytes, Hydrochloride. The text has this: Splenic cells were enumerated with the following assay. Dispersed splenocytes were reacted with fluorescein isothiocyanate-labelled murine monoclonal antibody anti-Ly5 for B cell enumeration and phycoerythrin-labelled monoclonal antibody anti-Thy 1.2 for T cell counts. The labelled cells were then enumerated with a fluorescence-activated cell sorter (FACS) (EPICS-C, Coulter Corp., Hialeah, Fla.).

Data set [4] has as its system YAC-1 tumor cells. Description: Natural killer cell activity, 4 hr chromium release assay. As to conditions: for % Chromium Release ± SD, Effector:Target Ratio 25:1 / % Chromium Release ± SD, Effector:Target Ratio 50:1: 50 mg/kg/day i.p. every other day for 4 injections, splenocytes 24 hr after final treatment, n = 5.
Method: (§1) Mice were administered a 50 mg/kg dose of the immunomodulators of the invention and were subsequently sacrificed. The spleens were harvested and splenocytes isolated. Immunologic assays were conducted on those splenocytes that were taken 24 hours after final treatment. These cells were subjected to tests to determine macrophage and natural killer (NK) cell function.
Three week-old C57 BL/6 mice were procured and quarantined for 24 to 48 hours prior to treatment. The five oligopeptides described in tables 2, 3 and 4 were admixed with a 0.4% water solution of carboxymethylcellulose. The solutions were stored at 4° C. until use. Ribavarin (1-β-D-ribofuranosyl-1,2,4-triazole-carboxamide) was used in each subsequent experiment as a control.
(§2) Animals were treated with a 50 mg/kg/day dosage of one of the tested compound and were killed 24 hr after the final treatment and their spleens removed. […] Red blood cells were removed by haemolytic lysis.
Natural killer (NK) activity of murine cells was determined by testing splenic cells for their ability to lyse YAC-1 tumor cells in a conventional 4 hr chromium release assay as an indicator of NK was expressed as: % chromium release=(experimental counts per minute (cpm)-background cpm)/(maximum cpm-background cpm)
Data set [5] relates to Macrophage function (IL-1 activity in splenocytes). Put plainly: Macrophage function, IL-1 activity in splenocytes by [3H]thymidine uptake in PHA-stimulated thymocytes. As to conditions: for Mean CPM of Treated Thymocytes ± SD: 50 mg/kg/day i.p. every other day for 4 injections, splenocytes 24 hr after final treatment, n = 5; for Effect on macrophage function (in words): 50 mg/kg, splenocytes 24 hours after final treatment, Hydrochloride.
Method: as §1
Ribavarin (1-β-D-ribofuranosyl-1,2,4-triazole-carboxamide) was used in each subsequent experiment as a control.
as §2
Macrophage function was assessed by an interleukin-1 (IL-1) assay that utilizes responsiveness of mouse thymocytes to phytohemagglutin (PHA) which is dependent on IL-1 for its reactivity.
The cells were incubated 72 hr at 37° C. During the last 4 hr of the incubation, the cells were pulsed with [^3 H] thymidine (1 μCi/well). The cells were then harvested and [H^3 ] thymidine incorporation was determined using a direct counter.

The test system of data set [6] is murinecytomegalovirus (MCMV) (Smith strain). Description: Mortality in MCMV-infected mice. In kind it is in vivo, Swiss Webster female mice. As to conditions: MCMV-infected mice.
The test system is the same in data set [7]. Put plainly: MCMV titers in tissues. The settings on record: 25 mg/kg. In kind it is in vivo, Swiss Webster female mice.
A short description of data set [8]: Toxicity controls: mortality and weight gain in uninfected mice. The format is in vivo. As to conditions: mouse, in vivo, 25 mg/kg. The procedure: Groups of 5 uninfected mice were treated the same way and at the same times as described above. These animal were checked daily for survival. Their weigths were taken before the first treatment and 24 hours after the last treatment to determine drug effect on weight gain.

The mark [9] stands for this setting: 25 mg/kg i.p. once daily for 5 days from 24 hours after virus, 21 days.

“Also recorded” adds a separate entry of the source. Some results are limits rather than exact numbers.

`CCCCCCCCCCCCCCCCCCN[C@H](C(=O)N[C@H](CCC(N)=O)C(=O)O)C(C)C.Cl` [BCH 1317, Octadecyl L-Valyl D-Glutamine Hydrochloride]: in data set [1] (Experiment 9), the “Plaque Assay, PFC relative to control (100%)” value was found to be 149% and the “Plaque Assay, PFC per 10^6 spleen cells” value was 750 ± 191 PFC per 10^6 spleen cells. Besides, the “Enzyme Immunoassay, IgM antibody relative to control (100%)” value in data set [2] (Experiment 9, 10 mg/kg i.p.) worked out at 189%.

`CCCCCCCCCCCCCCCCCCOC(=O)CC[C@@H](NC(=O)[C@H](C)N)C(=O)O.Cl` [BCH-524, γ-Octadecyl L-Alanyl D-Glutamate Hydrochloride]: in data set [1] (Experiment 5), the “Plaque Assay, PFC relative to control (100%)” value came to 58% and the “Plaque Assay, PFC per 10^6 spleen cells” value is listed as 245 ± 90 PFC per 10^6 spleen cells. In addition, the “Immunomodulating activity (in words)” value in data set [1] is listed as “immunosuppressors”. The “Enzyme Immunoassay, IgM antibody relative to control (100%)” value in data set [2] (Experiment 5, 10 mg/kg i.p.) is reported as 80%. In addition, in data set [3], the “% Cells/Spleen ± SD, B Cells” value stood at 33 ± 10.2%; the “% Cells/Spleen ± SD, T Cells” value is given as 35 ± 9.6%; the “Effect on B cell counts (in words)” value is given as “suppressive; also recorded: suppressed”; the “Effect on T cell counts (in words)” value is reported as “suppressive; also recorded: suppressed”. Moreover, in data set [4], the “% Chromium Release ± SD, Effector:Target Ratio 25:1” value turned out to be 9.8 ± 3.6% and the “% Chromium Release ± SD, Effector:Target Ratio 50:1” value is 14.3 ± 1.9%. The “Effect on natural killer (NK) cell activity (in words)” value in data set [4] (50 mg/kg, splenocytes 24 hours after final treatment, Hydrochloride) was “marginally suppressive; also recorded: marginal natural killer cell suppression”. In data set [5], the “Mean CPM of Treated Thymocytes ± SD” value turned out to be 5491 ± 1269 CPM and the “Effect on macrophage function (in words)” value was “somewhat stimulatory; also recorded: macrophage stimulation”.

Regarding `CCCCCCCCCCCCCCCCCCNC(=O)CC[C@@H](NC(=O)[C@H](C)N)C(N)=O.Cl` [BCH-1316, L-Alanyl D-Isoglutamyl Octadecylamine Hydrochloride], in data set [1] (Experiment 8), the “Plaque Assay, PFC relative to control (100%)” value is reported as 153% and the “Plaque Assay, PFC per 10^6 spleen cells” value worked out at 759 ± 252 PFC per 10^6 spleen cells. Moreover, the “Immunomodulating activity (in words)” value in data set [1] was “immunostimulants”. Moreover, the “Enzyme Immunoassay, IgM antibody relative to control (100%)” value in data set [2] (Experiment 8, 10 mg/kg i.p.) stood at 186%.

Consider “Octadecyl L-Alanyl D-Isoglutamyl γ-Glycine Hydrochloride [BCH-1315]”, for which, in data set [1] (Experiment 8), the “Plaque Assay, PFC relative to control (100%)” value came to 204% and the “Plaque Assay, PFC per 10^6 spleen cells” value is recorded as 1012 ± 207 PFC per 10^6 spleen cells. The “Immunomodulating activity (in words)” value in data set [1] was “immunostimulants”. In addition, the “Enzyme Immunoassay, IgM antibody relative to control (100%)” value in data set [2] (Experiment 8, 10 mg/kg i.p.) is 202%.

In the case of `Nc1nc(O)c2ncn(COC(CO)CO)c2n1` [Ganciclovir, reference compound], in data set [6] (setting [9]), the “Survivors (%)” value came to 100% and the Survivors/total was 10/10. In data set [6] (25 mg/kg i.p. once daily for 5 days, of mice that died on or before day 21), the “Mean day to death” value was greater than 21 days. Besides, in data set [7] (Day 3), the “Virus titer in Liver” value is recorded as 2.6±0.2 Log10 CCID50/qram, the “Virus titer in Lung” value was less than 2.5±0.0 Log10 CCID50/qram, the “Virus titer in salivary gland” value is 3.1±0.6 Log10 CCID50/qram and the “Virus titer in spleen” value is reported as 5.7±0.3 Log10 CCID50/qram. Further, in data set [7] (Day 6), the “Virus titer in Liver” value is listed as 3.3±0.8 Log10 CCID50/qram, the “Virus titer in Lung” value turned out to be 3.5±0.6 Log10 CCID50/qram, the “Virus titer in salivary gland” value came to 3.3±0.8 Log10 CCID50/qram and the “Virus titer in spleen” value was determined as 3.6±0.9 Log10 CCID50/qram. For the same compound, in data set [8], the “Survivors (%)” value came out at 100% and the Survivors/total is reported as 5/5.

`CCCCCCCCCCCCCCCCCCOC(=O)[C@@H](CCC(=O)O)NC(=O)[C@H](C)N.Cl` [BCH-526, α-Octadecyl L-Alanyl D-Glutamate Hydrochloride]: in data set [1] (Experiment 5), the “Plaque Assay, PFC relative to control (100%)” value is given as 77% and the “Plaque Assay, PFC per 10^6 spleen cells” value is 325 ± 300 PFC per 10^6 spleen cells. In data set [1], the “Immunomodulating activity (in words)” value is given as “immunosuppressors”. For the same compound, the “Enzyme Immunoassay, IgM antibody relative to control (100%)” value in data set [2] (Experiment 5, 10 mg/kg i.p.) came to 82%. In data set [3], the “% Cells/Spleen ± SD, B Cells” value is recorded as 43 ± 1.4%; the “% Cells/Spleen ± SD, T Cells” value came to 40 ± 2.4%; the “Effect on B cell counts (in words)” value is “increase % B cells; also recorded: increased B cell counts”; the “Effect on T cell counts (in words)” value is reported as “suppressing T cells; also recorded: suppressed T cell counts”. In addition, in data set [4], the “% Chromium Release ± SD, Effector:Target Ratio 25:1” value was found to be 12.8 ± 2.1% and the “% Chromium Release ± SD, Effector:Target Ratio 50:1” value came out at 17.2 ± 3.3%. In data set [5], the “Mean CPM of Treated Thymocytes ± SD” value is listed as 3413 ± 206 CPM and the “Effect on macrophage function (in words)” value was “moderately inhibitory; also recorded: moderate macrophage suppression”.
